Experimental data reported in paper PMC2993481, “Rat cytochromes P450 oxidize 3-aminobenzanthrone, a human metabolite of the carcinogenic environmental pollutant 3-nitrobenzanthrone” (Interdisciplinary Toxicology, 2010).
Values belong to the molecule of their own block, whether it stands above or below them.

Experiments:
CYP1A1/2 = assay: Inhibition of 3-ABA oxidation by CYPs in hepatic microsomes of β-naphthoflavone-pretreated rats; format: biochemical; details: male, Wistar, rat, liver microsomes from β-naphthoflavone-pretreated rats, pH 7.4, probe 3-ABA (5-50 µM), hepatic microsomes from rats pretreated with β-naphtoflavone (CYP1A1/2), inhibitor 0.01–0.1 mM, 37 °C
Procedure: The HPLC was performed with a reversed phase column (Nucleosil 100-5 C18, Macherey-Nagel, Duren, Germany, 25 cm×4.6 mm, 5 µm) proceeded by a C-18 guard column, using isocratic elution conditions of 70% methanol in distilled water with a flow rate of 0.6 ml/min.
Inhibitors were dissolved in 7.5 µl of methanol or water (in the case of diethyldithiocarbamate), to yield final concentrations of 0.01–0.1 mM in the incubation mixtures. […] After the incubation, 3-ABA and its metabolites were extracted and analyzed by HPLC as described above.

[1] = test system: Control rat hepatic microsomes (CYPs); assay: Inhibition of 3-ABA oxidation by CYPs in hepatic microsomes of untreated (control) rats; format: biochemical; details: hepatic microsomes from control rats; inhibitor 0.01–0.1 mM, 20 min, 37 °C
Procedure: The study was conducted in accordance with the Regulations for the Care and Use of Laboratory Animals (311/1997, Ministry of Agriculture, Czech Republic), which complies with Declaration of Helsinki.

[2] = test system: rat hepatic CYP enzymes in microsomes; assay: Oxidation of 3-ABA by rat hepatic microsomes, metabolites separated by HPLC; format: in vitro ADME; details: NADPH, 37 °C
Procedure: (§1) The study was conducted in accordance with the Regulations for the Care and Use of Laboratory Animals (311/1997, Ministry of Agriculture, Czech Republic), which complies with Declaration of Helsinki. Microsomes from livers of ten male untreated Wistar rats and those of rats pretreated with β-NF (Sigma, UK) and PB were prepared by the procedure described previously (Stiborová et al., [2002]). Rat liver microsomes contained 0.6 nmol CYP/mg protein. Hepatic microsomes of rats treated with β-NF and PB contained 1.3 and 1.5 nmol CYP/mg proteins, respectively.
Incubation mixtures, in a final volume of 500 µl, consisted of 100 mM potassium phosphate buffer (pH 7.4), 10 mM NADPH, 0.5 mg of microsomal protein and 5–50 µM 3-ABA (dissolved in dimethyl sulfoxide, DMSO). The reaction was initiated by adding 3-ABA. Incubations with rat microsomes were carried out at 37 °C for 5–180 minutes. Control incubations were carried out either (1) without the enzymatic system (microsomes) or (2) with microsomes and 3-ABA, but without NADPH. Then, 5 µl of 1 mM phenacetine in methanol was added as an internal standard and 3-ABA and its metabolites were extracted twice with ethyl acetate (2 × 1.5 ml). The extracts were evaporated to dryness; residues were dissolved in 30 µl of methanol and subjected to reverse-phase (RP)-HPLC to evaluate the amounts of residual 3-ABA and its metabolites. […]

[3] = design: method as in Seidel et al., [2002]; details: smoking and nonsmoking salt mining workers exposed to diesel emissions; ref Seidel et al., [2002]; cited from earlier work
[4] = test system: Hepatic microsomes from rats pretreated with Phenobarbital (CYP2B); assay: Inhibition of 3-ABA oxidation by CYPs in hepatic microsomes of phenobarbital-pretreated rats; format: biochemical, rat; details: inhibitor 0.01–0.1 mM, 20 min, 37 °C
Procedure: as §1
Incubation mixtures, in a final volume of 500 µl, consisted of 100 mM potassium phosphate buffer (pH 7.4), 10 mM NADPH, 0.5 mg of microsomal protein and 5–50 µM 3-ABA (dissolved in dimethyl sulfoxide, DMSO). The reaction was initiated by adding 3-ABA. Incubations with rat microsomes were carried out at 37 °C for 5–180 minutes. […]
The following chemicals were used to inhibit 3-ABA oxidation in the presence of rat hepatic microsomes: α-naphthoflavone (α-NF), which inhibits CYP1A1 and 1A2, furafylline, which inhibits CYP1A2, diamantane, an inhibitor of CYP2B, sulfophenazole, which inhibits CYP2C and diethyldithiocarbamate, which inhibits CYP2E1 (Rendic and DiCarlo, [1997]). […] After the incubation, 3-ABA and its metabolites were extracted and analyzed by HPLC as described above.

Salmonella = test system: Salmonella; design: method as in Enya et al., [1997]; Seidel et al., [2002]; Arlt, [2005]; details: ref Enya et al., [1997]; Seidel et al., [2002]; Arlt, [2005]; cited from earlier work
rats = test system: rats; design: method as in Seidel et al., [2002]; Arlt, [2005]; Nagy et al., [2005]; details: intratracheal instillation, ref Seidel et al., [2002], Arlt, [2005], Nagy et al.; cited from earlier work

Compound: Nc1ccc2c3c(cccc13)C(=O)c1ccccc1-2 [3-ABA, 3-Aminobenzanthrone]
Metabolites formed by oxidation in rat hepatic microsomes [2]: up to three metabolites
Concentration detected in urine [3]: 1–143 ng/24 h urine

Compound: Nc1ccc2ccc3cccc4ccc1c2c34 [1-aminopyrene]
Concentration detected in urine [3]: 2–200 ng/24 h urine

Compound: C1C2CC3C4CC5CC(C14)C(C2)C3C5 [Diamantane, diamantane]
IC50 [4]: 0.9 µM

Compound: O=C1c2ccccc2-c2ccc([N+](=O)[O-])c3cccc1c23 [3-NBA, 3-nitro-7H-benz[de]anthracen-7-one]
Mutagenic potency in the Ames Salmonella assay (Salmonella): extremely high mutagenic potency
Carcinogenicity in rats (rats): carcinogenic in rats, causing lung tumours

The remaining lines, values ahead:

IC50 at 20 min (CYP1A1/2): 10.9 µM
Compound: O=c1cc(-c2ccccc2)oc2c1ccc1ccccc12 [α-naphtoflavone, α-naphthoflavone]

IC50 [1]: 96.8 µM
Compound: CCN(CC)C(=S)S [DDTC, diethyldithiocarbamate]

IC50 at 20 min (CYP1A1/2): 16.6 µM
Compound: Cc1nc2c([nH]1)c(=O)n(C)c(=O)n2Cc1ccco1 [Furafylline, furafylline]
